Results reported in patent US10052305B2, “Lipoic acid and derivatives thereof for the treatment of cystinuria” (Buck Institute for Research on Aging, priority 2015, dated 2018).

What was measured:
Format in all cases: in vivo
[1] = Real time food and water intake in metabolic cages; conditions: Slc3a1−/− mice; 0.5% (±)-α-lipoic acid diet vs standard diet; 3 days after 3 days of acclimation
Protocol: Real time food and water intake was measured in Slc3a1^−/− mice treated with 0.5% (±)-α-lipoic acid supplemented diet by group housing in metabolic cages. Mice were acclimated to the metabolic cage environment for 3 days and then evaluated for food and water intake for the subsequent 3 days.

Slc3a1−/− mice [2] = assay: Prevention of cystine stone formation in a genetic mouse model of cystinuria, evaluated by micro-computed tomography (μCT)
Excerpt: A genetic mouse model of cystinuria was used to study the formation of cystine urinary stones. Mice lacking the gene Slc3a1 (Slc3a1^−/−) were fed a diet supplemented with 0.5% (±)-α-lipoic acid and evaluated for the formation of cystine stones using micro-computed tomography (μCT). […] On average, mice treated with lipoic acid developed much smaller cystine stones (mm^3). This experiment was repeated again (Experiment 2) with similar results; none (0 out of 6) of the lipoic acid treated cystinuric mice developed stones while all control, non-treated mice (8 out of 8) had developed urinary stones had developed stones by day 27 of the study.

Slc3a1−/− mice [3] = assay: Effect on cystine urinary stone growth tracked by μCT after switch to a lipoic acid diet; conditions: Slc3a1−/− mice on standard diet, switched on day 54 to diet with 0.5% (±)-α-lipoic acid; before vs after treatment
Excerpt: To evaluate the effect of lipoic acid on cystine urinary stone growth, stone development was tracked by micro-computed tomography (μCT) in Slc3a1^−/− mice fed a standard diet. On day 54 of the study, the mice were switched onto a diet supplemented with 0.5% (±)-α-lipoic acid.

O=C(O)CCCCC1CCSS1 (racemic) [Lipoic acid, (±)-α-lipoic acid]
light cycle, dark cycle, or total food intake [1]: did not especially alter | light cycle, dark cycle, or total water intake [1]: did not especially alter | mice that developed stones (Slc3a1−/− mice [2]; Experiment 2 (repeat), by day 27 of the study, non-treated mice 8 out of 8): 0 out of 6 | average cystine stone size vs non-treated mice (Slc3a1−/− mice [2]; first experiment (FIG. 2), diet supplemented with 0.5% (±)-α-lipoic acid): much smaller | mice that developed cystine stones (Slc3a1−/− mice [2]; first experiment (FIG. 2), diet supplemented with 0.5% (±)-α-lipoic acid, non-treated mice 7/7): 2 out of 8 | decrease of the rate of stone volume accumulation (mm^3/day) (Slc3a1−/− mice [3]): 90%
